Some results are limits rather than exact numbers.

The values below come from patent publication US8354403B2, “Pyrrolidine derived beta 3 adrenergic receptor agonists” (Merck Sharp & Dohme Corp., priority 2009, dated 2013).

The target in one assay is T1, human β3 adrenergic receptor (Homo sapiens, UniProt P13945).
T1 construct: expressed in transfected cells; host or cells: Chinese hamster ovary (CHO) cells, stably transfected
T1 sequence (P13945 whole entry): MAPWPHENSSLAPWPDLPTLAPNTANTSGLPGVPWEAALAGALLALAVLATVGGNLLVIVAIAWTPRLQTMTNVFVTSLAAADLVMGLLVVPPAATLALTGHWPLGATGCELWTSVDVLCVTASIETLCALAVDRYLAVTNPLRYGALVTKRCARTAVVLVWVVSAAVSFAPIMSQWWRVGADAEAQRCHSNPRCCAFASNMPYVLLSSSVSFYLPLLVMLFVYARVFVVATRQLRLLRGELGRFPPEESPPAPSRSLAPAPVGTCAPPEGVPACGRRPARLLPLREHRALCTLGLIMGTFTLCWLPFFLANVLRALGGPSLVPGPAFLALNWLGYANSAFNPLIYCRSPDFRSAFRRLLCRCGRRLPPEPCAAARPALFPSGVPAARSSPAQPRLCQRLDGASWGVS
The experiment in a line: Beta-3 agonist in vitro functional assay: cAMP production (LANCE TR-FRET) in CHO cells stably transfected with the cloned β3 receptor. In kind it is cell-based. Particulars: Table 4; cAMP, CHO cells; read-out: Human β3 agonist functional activity. In outline:
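CHO cells stably expressing the cloned receptor, in HEPES-buffered HBSS with BSA and 0.6 mM IBMX, 6,000 cells/well, exposed to compound for 30 min at RT. cAMP read by LANCE TR-FRET against a cAMP standard curve. Isoproterenol defines maximal stimulation.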
For orientation: Cyclic AMP is a second messenger, typically raised through Gs and lowered through Gi signalling.
Take `CO[C@H]1CCN(C(=O)c2ccc(C[C@@H]3CC[C@H]([C@H](O)c4ccccc4)N3)cc2)C1` [Example 8]: the EC50 lay within 0.1 to 0.999 µM.

In the case of `CO[C@@H]1CCN(C(=O)c2ccc(C[C@@H]3CC[C@H]([C@H](O)c4ccccc4)N3)cc2)C1` [Example 7], the EC50 fell in the range of 0.1 to 0.999 µM.

On to `O=C(OCc1ccccc1)C1CCCN(C(=O)c2ccc(C[C@@H]3CC[C@H]([C@H](O)c4ccccc4)N3)cc2)C1` (stereo partly drawn) [Example 32], for which the EC50 was in the range of 0.01 to 0.0999 µM. `Cc1nc2c(s1)CCN(C(=O)c1ccc(C[C@@H]3CC[C@H]([C@H](O)c4ccccc4)N3)cc1)C2` [Example 52]: the EC50 fell in the range of 0.1 to 0.999 µM. Still for that read-out and setting: for `CC1(C)CC2(CCCN(C(=O)c3ccc(C[C@@H]4CC[C@H]([C@H](O)c5ccccc5)N4)cc3)C2)C(=O)O1` (stereo partly drawn) [Example 41] the value was 0.01 to 0.0999 µM. Take `C[C@@H]1CN(C(=O)c2ccc(C[C@@H]3CC[C@H]([C@H](O)c4ccccc4)N3)cc2)CC[C@H]1n1cccn1` [Example 61]: the EC50 lay within 0.1 to 0.999 µM. Still for that read-out and setting: under `O=C(c1ccc(C[C@@H]2CC[C@H]([C@H](O)c3ccccc3)N2)cc1)N1CCc2oncc2C1` [Example 55] stands 0.1 to 0.999 µM.

The assay is the same for the next values; noted with them: Table 5; cAMP, CHO cells; read-out: Human β3 agonist functional activity.
Consider `O=C(c1ccc(C[C@@H]2CC[C@H]([C@H](O)c3ccccc3)N2)cc1)N1CCC(c2nnnn2C2CC2)CC1` [Example 110], for which the EC50 was under 0.001 µM. The same measure, in the same setting: under `O=C(c1ccc(C[C@@H]2CC[C@H]([C@H](O)c3cccnc3)N2)cc1)N1CCC(S(=O)(=O)c2ccc(F)cc2)CC1` [Example 129] stands 0.1 to 0.999 µM; under `CC(C)n1nnnc1C1CCN(C(=O)c2ccc(C[C@@H]3CC[C@H]([C@H](O)c4ccccc4)N3)cc2)CC1` [Example 109], 0.001 to 0.0099 µM. Same read-out and setting: for `Cc1nccc(OC2CCN(C(=O)c3ccc(C[C@@H]4CC[C@H]([C@H](O)c5ccccc5)N4)cc3)CC2)n1` [Example 154] the value was 0.1 to 0.999 µM; for `Cc1cnnn1C1CCN(C(=O)c2ccc(C[C@@H]3CC[C@H]([C@H](O)c4ccccc4)N3)cc2)CC1` [Example 96], 0.1 to 0.999 µM; for `Cn1nnc(C2CCN(C(=O)c3ccc(C[C@@H]4CC[C@H]([C@H](O)c5ccccc5)N4)cc3)CC2)n1` [Example 106], 0.01 to 0.0999 µM. Same read-out and setting: for `O=C(c1ccc(C[C@@H]2CC[C@H]([C@H](O)c3ccccc3)N2)cc1)N1CCC(c2nc(-c3cnccn3)no2)CC1` [Example 83] the value was 0.1 to 0.999 µM; for `O=C(c1ccc(C[C@@H]2CC[C@H]([C@H](O)c3ccccc3)N2)cc1)N1CCC(c2nn[nH]n2)CC1` [Example 105], 0.01 to 0.0999 µM; for `O=C(c1ccc(C[C@@H]2CC[C@H]([C@H](O)c3ccccc3)N2)cc1)N1CCC(c2cccc(F)n2)CC1` [Example 112], 0.01 to 0.0999 µM. Consider `O=C(c1ccc(C[C@@H]2CC[C@H]([C@H](O)c3ccccc3)N2)cc1)N1CCC(Cn2ncccc2=O)CC1` [Example 148], for which the EC50 was in the range of 0.01 to 0.0999 µM.

On to `COc1cc(OC)nc(C2CCN(C(=O)c3ccc(C[C@@H]4CC[C@H]([C@H](O)c5ccccc5)N4)cc3)CC2)n1` [Example 115], for which the EC50 is 0.1 to 0.999 µM.

The assay is the same for the next values; noted with them: Table 8; Beta-3 agonist in vitro functional assay; read-out: Human β3 agonist functional activity.
For the molecule `O=C(c1ccc(C[C@@H]2CC[C@H]([C@H](O)c3ccccc3)N2)cc1)N1CCC2(CC1)Nc1ccccc1S(=O)(=O)N2` [Example 334], the EC50 lay in the range of 0.001 to 0.0099 µM.

Consider `O=C1CC2(CCN(C(=O)c3ccc(C[C@@H]4CC[C@H]([C@H](O)c5ccccc5)N4)cc3)CC2)Oc2ccc(-c3nnn[nH]3)cc21` [Example 325], for which the EC50 was in the range of 0.01 to 0.0999 µM.

`O=C1OC2(CCN(C(=O)c3ccc(C[C@@H]4CC[C@H]([C@H](O)c5ccccc5)N4)cc3)CC2)c2scnc21` [Example 289]: the EC50 lay within 0.01 to 0.0999 µM. Still for that read-out and setting: under `O=C(c1ccc(C[C@@H]2CC[C@H]([C@H](O)c3ccccc3)N2)cc1)N1CCC2(CC1)C(=O)Nc1ccccc12` [Example 299] stands 0.01 to 0.0999 µM; under `CC1OC(=O)C2(CCN(C(=O)c3ccc(C[C@@H]4CC[C@H]([C@H](O)c5ccccc5)N4)cc3)CC2)C1C` (stereo partly drawn) [Example 297], 0.001 to 0.0099 µM. The same measure, in the same setting: for `CC1COC(=O)C12CCN(C(=O)c1ccc(C[C@@H]3CC[C@H]([C@H](O)c4ccccc4)N3)cc1)CC2` (stereo partly drawn) [Example 296] the value was 0.001 to 0.0099 µM.

Staying with this assay, now noted: Table 9; Beta-3 agonist in vitro functional assay; read-out: Human β3 agonist functional activity.
In the case of `CC(C)n1nnc(CN2CCN(C(=O)c3ccc(C[C@@H]4CC[C@H]([C@H](O)c5ccccc5)N4)cc3)CC2)n1` [Example 402], the EC50 was in the range of 0.01 to 0.0999 µM.

In the case of `COC(=O)c1cccnc1N1CCN(C(=O)c2ccc(C[C@@H]3CC[C@H]([C@H](O)c4ccccc4)N3)cc2)CC1` [Example 366], the EC50 was 0.01 to 0.0999 µM. The same measure, in the same setting: for `O=C(c1ccc(C[C@@H]2CC[C@H]([C@H](O)c3ccccc3)N2)cc1)N1CCN(Cc2ncccc2Br)CC1` [Example 416] the value was 0.01 to 0.0999 µM; for `O=C(c1ccc(C[C@@H]2CC[C@H]([C@H](O)c3ccccc3)N2)cc1)N1CCN(c2ccc3c(c2)OCCO3)CC1` [Example 354], 0.1 to 0.999 µM. Same read-out and setting: under `O=C(c1ccc(C[C@@H]2CC[C@H]([C@H](O)c3ccccc3)N2)cc1)N1CCN(Cc2n[nH]c3ccccc23)CC1` [Example 405] stands 0.001 to 0.0099 µM. Still for that read-out and setting: under `O=C(c1ccc(C[C@@H]2CC[C@H]([C@H](O)c3ccccc3)N2)cc1)N1CCN(c2ccccc2O)CC1` [Example 359] stands 0.01 to 0.0999 µM; under `O=C(c1ccc(C[C@@H]2CC[C@H]([C@H](O)c3cccnc3)N2)cc1)N1CCN(c2nccs2)CC1` [Example 379], 0.1 to 0.999 µM. For the molecule `O=C(c1ccc(C[C@@H]2CC[C@H]([C@H](O)c3ccccc3)N2)cc1)N1CCN(c2ncc3ccccc3n2)CC1` [Example 375], the EC50 lay within 0.1 to 0.999 µM. The same measure, in the same setting: for `O=C(c1ccc(C[C@@H]2CC[C@H]([C@H](O)c3ccccc3)N2)cc1)N1CCN(c2nccc3ccccc23)CC1` [Example 373] the value was 0.01 to 0.0999 µM; for `O=C(c1ccc(C[C@@H]2CC[C@H]([C@H](O)c3ccccc3)N2)cc1)N1CCN(c2ccc3c(c2)OCO3)CC1` [Example 353], 0.1 to 0.999 µM. In the case of `O=C(O)COc1cccnc1N1CCN(C(=O)c2ccc(C[C@@H]3CC[C@H]([C@H](O)c4ccccc4)N3)cc2)CC1` [Example 367], the EC50 is 0.1 to 0.999 µM. In the case of `O=C(c1ccc(C[C@@H]2CC[C@H]([C@H](O)c3ccccc3)N2)cc1)N1CCN(c2ncccn2)CC1` [Example 370], the EC50 lay in the range of 0.1 to 0.999 µM. Take `CC(C)Oc1cccnc1CN1CCN(C(=O)c2ccc(C[C@@H]3CC[C@H]([C@H](O)c4ccccc4)N3)cc2)CC1` [Example 415]: the EC50 lay within 0.01 to 0.0999 µM. As for `CCOC(=O)N1CCN(C(=O)c2ccc(C[C@@H]3CC[C@H]([C@H](O)c4ccccc4)N3)cc2)CC1` [Example 344], the EC50 was 0.1 to 0.999 µM. `O=C(c1ccc(C[C@@H]2CC[C@H]([C@H](O)c3cccnc3)N2)cc1)N1CCN(c2nccc(-c3ccccc3)n2)CC1` [Example 377]: the EC50 is 0.01 to 0.0999 µM.

Staying with this assay, now noted: Table 10; Beta-3 agonist in vitro functional assay; read-out: Human β3 agonist functional activity.
With `CC(C(=O)N1CCn2ccnc2C1)N1CCN(C(=O)c2ccc(C[C@@H]3CC[C@H]([C@H](O)c4ccccc4)N3)cc2)CC1` (stereo partly drawn) [Example 502], the EC50 fell in the range of 0.01 to 0.0999 µM.

For the molecule `CC(C(=O)N1CCC[C@@H]1C)N1CCN(C(=O)c2ccc(C[C@@H]3CC[C@H]([C@H](O)c4ccccc4)N3)cc2)CC1` (stereo partly drawn) [Example 480], the EC50 was in the range of 0.01 to 0.0999 µM. With `CC(C)[C@@H](C)NC(=O)C(C)N1CCN(C(=O)c2ccc(C[C@@H]3CC[C@H]([C@H](O)c4ccccc4)N3)cc2)CC1` (stereo partly drawn) [Example 441], the EC50 is 0.01 to 0.0999 µM.

For `CC[C@@H](C)NC(=O)C(C)N1CCN(C(=O)c2ccc(C[C@@H]3CC[C@H]([C@H](O)c4ccccc4)N3)cc2)CC1` (stereo partly drawn) [Example 440], the EC50 is 0.01 to 0.0999 µM. Same read-out and setting: under `COCCNC(=O)C(C)N1CCN(C(=O)c2ccc(C[C@@H]3CC[C@H]([C@H](O)c4ccccc4)N3)cc2)CC1` (stereo partly drawn) [Example 442] stands 0.1 to 0.999 µM; under `CC(C)CN(C)C(=O)C(C)N1CCN(C(=O)c2ccc(C[C@@H]3CC[C@H]([C@H](O)c4ccccc4)N3)cc2)CC1` (stereo partly drawn) [Example 518], 0.1 to 0.999 µM.

Still in this assay, the particulars now being: Table 11; cAMP, CHO cells; read-out: Human β3 agonist functional activity.
On to `O=C(c1ccc(C[C@@H]2CC[C@H]([C@H](O)c3ccccc3)N2)cc1)N1CC2CCC(C1)N2Cc1ccccn1` [Example 535], for which the EC50 was in the range of 0.1 to 0.999 µM. On the same count and under the same terms, under `O=C(c1ccc(C[C@@H]2CC[C@H]([C@H](O)c3ccccc3)N2)cc1)N1CCCN(c2nccn3ccnc23)CC1` [Example 552] stands 0.001 to 0.0099 µM.

Staying with this assay, now noted: Table 12; human β3 functional activity given as ranges; read-out: Human β3 agonist functional activity.
Turning to `O=C(c1ccc(CC2CCC(C(O)c3ccccc3)N2)cc1)N1CCN(C2CCN(c3ccccc3)C2=O)CC1` (single isomer, unassigned) [Example 606], the EC50 was in the range of 0.01 to 0.0999 µM. Same read-out and setting: under `CC(C)(C)C1CC2(CCN(C(=O)c3ccc(CC4CCC(C(O)c5ccccc5)N4)cc3)CC2)C(=O)O1` (single isomer, unassigned) [Example 570] stands 0.001 to 0.0099 µM. The same measure, in the same setting: under `CC(c1ncc2ccccc2n1)N1CCN(C(=O)c2ccc(C[C@@H]3CC[C@H]([C@H](O)c4ccccc4)N3)cc2)CC1` (mixture of isomers) [Example 572] stands 0.001 to 0.0099 µM; under `CC(c1cccnn1)N1CCN(C(=O)c2ccc(CC3CCC(C(O)c4ccccc4)N3)cc2)CC1` (single isomer, unassigned) [Example 592], 0.1 to 0.999 µM.

For `CC(c1nccs1)N1CCN(C(=O)c2ccc(CC3CCC(C(O)c4ccccc4)N3)cc2)CC1` (single isomer, unassigned) [Example 582], the EC50 was 0.01 to 0.0999 µM. The same measure, in the same setting: for `O=C(c1ccc(CC2CCC(C(O)c3ccccc3)N2)cc1)N1CCN(C(c2ccccn2)C2CC2)CC1` (single isomer, unassigned) [Example 589] the value was 0.01 to 0.0999 µM.

The same assay, now with this note: given as a range; cAMP, CHO cells; read-out: human β3 functional activity.
As for `O=C(c1ccc(C[C@@H]2CC[C@H]([C@H](O)c3ccccc3)N2)cc1)N1CCC(c2cscn2)CC1` [Example 66, (R)-phenyl[(2R,5S)-5-(4-{[4-(1,3-thiazol-4-yl)-piperidin-1-yl]carbonyl}benzyl)pyrrolidine-2-yl]methanol], the EC50 was in the range of 0.01 to 0.0999 µM.
